Experimental findings from paper PMC6692352, “DF2726A, a new IL-8 signalling inhibitor, is able to counteract chemotherapy-induced neuropathic pain” (Scientific Reports, 2019) are described below.

The structures appear in SMILES notation.

As a reminder, the logP is a log measure of how a compound divides between an organic and an aqueous phase. A word on the pKa: it is the pH at which an ionisable group is half protonated. Read a low pKa as a stronger acid or weaker base.

The test system of data set [1] is spontaneous human polimorphonuclear neutrophil (hPMN) migration. The experiment in a line: Spontaneous hPMN migration. Type of data set: cell-based. The text has this:
chemotherapy-induced neuropathic pain”
Benedetti, Antonio Giordano, Annamaria Cimini, Marcello Allegretti.
Chemokines were from PeproTech (London, UK). Chemicals and cell culture reagents were from Sigma Aldrich (Saint Louis, MI, USA).
Cell isolation and culture
L’Aquila, Italy. Ethical clearance was obtained to perform these experiments. Human PMNs were […]
blood cells as previously described 1.
Cell viability, as measured by Trypan Blue dye exclusion, was greater than 98%. […]
microchemotaxis chamber, as previously described 2. Briefly, 25 µl of control medium (PBS for […]
the lower compartment of the chemotaxis chamber. […]
(§1) vehicle were seeded in the upper compartment. The two compartments were separated by 5 µm pre-size polycarbonate filter (polyvinylpyrrolidone-free for PMN chemotaxis). The chamber was […]
(§2) Physicochemical characterization […]
(§3) and a turbidity-sensing device. […]
(§4) water/HBSS to a final concentration of 10 μM. Cell membrane homogenates (48 μg protein) were […]

Data set [2] is described as follows: pKa, logD7.4, logP (SiriusT3 titration). Type of data set: physicochemical. As to the method: as §1, §2, §3, §4
The subject of the next data set is TRPM8. The experiment in a line: Western blot of DRG of oxaliplatin rats, TRPM8. Conditions: 30 mg/kg os. Type of data set: in vivo, male Wistar rats. As to the method:
Animals were sacrificed and dorsal root ganglia (DRG) (L4-L6) were removed and stored at […]. They were homogenized on ice-cold lysis buffer [20 mM Tris–HCl (pH 7.5), 10 mM NaF, 150 mM NaCl, 1% Nonidet P-40, 1 mM phenylmethylsulfonyl fluoride, 1 mM Na3VO4, leupeptin and trypsin inhibitor 10 μg/mL; 20 µl/sample, as previously described.
After 1 h, tissue lysates were obtained by centrifugation at 20,000 g for 15 min at 4 °C. Protein concentrations were estimated by the Bio-Rad protein assay using bovine serum albumin as standard.
DRG lysate proteins (30 μg) were dissolved in Laemmli sample buffer, boiled for 5 min, and separated on SDS-polyacrylamide gel elctrophoresis and transferred onto nitrocellulose membrane (240 mA for 40 min at room temperature). […] The protein bands were scanned and densitometrically analyzed with a model GS-700 imaging densitometer (Bio-Rad Laboratories, Milan, Italy). […]

The test system of data set [3] is IL-8-induced hPMN chemotaxis. Conditions: read-out: IC50 (CXCL8 / IL-8-induced hPMN chemotaxis); hPMN pre-incubated 15 min at 37°C, migration 45 min.
Description: Human mononuclear cells and PMNs were obtained from buffy coats of heparinized peripheral
blood from adult healthy volunteers courtesy of Centro Trasfusionale, Ospedale S. Salvatore,
prepared to 99% purity by dextran sedimentation followed by hypotonic lysis of contaminating red
blood cells as previously described 1. PMNs were washed once with saline and then resuspended at
1.5 x 10^6/ml in HBSS for migration assay. Cell viability, as measured by Trypan Blue dye exclusion, was greater than 98%.
Migration of human PMNs was evaluated by microchamber technique in a 48-well
monocytes and HBSS for PMNs) or chemoattractant (CXCL1, CXCL8) solutions were seeded in
the lower compartment of the chemotaxis chamber. Fifty µl of cell suspension (1.5 x 10^6/ml) pre-
immersion fields at high magnification (100X; Zeiss microscope) were counted after sample

As to `CC(C)(C(=O)O)c1ccc(Nc2nc(C(F)(F)F)cs2)cc1` [DF2726A], the “Inhibition of spontaneous hPMN migration per se” value in data set [1] was “did not inhibit”. The logP in data set [2] came to 4.3. For the same molecule, the pKa in data set [2] (0.15 M KCl, 25 ± 1°C) amounted to 4.14. The same molecule came in with a logD7.4 in data set [2] (pH 7.4) of 0.75. The “TRPM8 expression in DRG of oxaliplatin rats” value in the data set on TRPM8 is reported as “significant reduction in the expression”. For the same molecule, the IC50 in data set [3] is 0.01 ± 0.005 µM.
